ChEMBL document CHEMBL3885861, “Open TG-GATES”

Species on record: Rattus norvegicus
Test: Open TG-GATES - Regimen: Daily Repeat
Format: toxicity, organism-based, Sprague-Dawley
Parameters: regimen Daily Repeat, gender Male, age 6 weeks
Conditions: in vivo, po, 300 mg/kg, route gavage, dose level Middle; for APTT / Bas / Eos / Fbg / Hb / Ht / Lym / MCH / MCHC / MCV / Mono / Neu / PT / Plat / RBC / Ret / WBC: tissue Blood; for KIDNEY_L / KIDNEY_R / KIDNEY_TOTAL: tissue Kidney; for LIVER: tissue Liver; for A/G / ALP / ALT / AST / BUN / CRE / Ca / Cl / DBIL / GLC / IP / K / LDH / Na / PL / RALB / TBIL / TC / TG / TP / gamma-GTP: tissue Plasma

CCN1CCCC1CNC(=O)c1cc(S(N)(=O)=O)ccc1OC (configuration not stated) [SULPIRIDE]
TERMINAL_BW (72 h, time 3 day): 234.7 g | APTT (72 h, time 3 day): 16.7 s | Bas (72 h, time 3 day): 0% | Eos (72 h, time 3 day): 1% | Fbg (72 h, time 3 day): 278.2 mg/dL | Hb (72 h, time 3 day): 13.4 g/dL | Ht (72 h, time 3 day): 40.9% | Lym (72 h, time 3 day): 78.8% | MCH (72 h, time 3 day): 20.6 pg | MCHC (72 h, time 3 day): 32.8% | MCV (72 h, time 3 day): 62.7 fL | Mono (72 h, time 3 day): 3.4% | Neu (72 h, time 3 day): 16.2% | PT (72 h, time 3 day): 13.1 s | Plat (72 h, time 3 day): 118.8 x10_4/uL | RBC (72 h, time 3 day): 653.4 x10_4/ul | Ret (72 h, time 3 day): 6.5% | WBC (72 h, time 3 day): 94.6 x10_2/uL | KIDNEY_L (72 h, time 3 day): 1 g | KIDNEY_R (72 h, time 3 day): 1 g | KIDNEY_TOTAL (72 h, time 3 day): 2.1 g | LIVER (72 h, time 3 day): 11.7 g | A/G (72 h, time 3 day): 0.9 | ALP (72 h, time 3 day): 1582.2 IU/L | ALT (72 h, time 3 day): 44 IU/L | AST (72 h, time 3 day): 65.8 IU/L | BUN (72 h, time 3 day): 14.6 mg/dL | CRE (72 h, time 3 day): 0.2 mg/dL | Ca (72 h, time 3 day): 11.1 mg/dL | Cl (72 h, time 3 day): 103.2 meq/L | DBIL (72 h, time 3 day): 0.01 mg/dL | GLC (72 h, time 3 day): 182 mg/dL | IP (72 h, time 3 day): 8 mg/dL | K (72 h, time 3 day): 4.4 meq/L | LDH (72 h, time 3 day): 78.2 IU/L | Na (72 h, time 3 day): 139.6 meq/L | PL (72 h, time 3 day): 147.8 mg/dL | RALB (72 h, time 3 day): 2.7 g/dL | TBIL (72 h, time 3 day): 0.056 mg/dL | TC (72 h, time 3 day): 78.4 mg/dL | TG (72 h, time 3 day): 92.8 mg/dL | TP (72 h, time 3 day): 5.7 g/dL | gamma-GTP (72 h, time 3 day): 1 IU/L | TERMINAL_BW ([…], time 7 day): 265.3 g | TERMINAL_BW ([…], time 14 day): 329.3 g | TERMINAL_BW ([…], time 28 day): 375.2 g | APTT ([…], time 7 day): 16.9 s | Bas ([…], time 7 day): 0% | Eos ([…], time 7 day): 1% | Fbg ([…], time 7 day): 297.2 mg/dL | Hb ([…], time 7 day): 13.8 g/dL | Ht ([…], time 7 day): 41.8% | Lym ([…], time 7 day): 81.8% | MCH ([…], time 7 day): 20 pg | MCHC ([…], time 7 day): 33% | MCV ([…], time 7 day): 60.4 fL | Mono ([…], time 7 day): 2.2% | Neu ([…], time 7 day): 14.4% | PT ([…], time 7 day): 13.1 s | Plat ([…], time 7 day): 123.9 x10_4/uL | RBC ([…], time 7 day): 692.4 x10_4/ul | Ret ([…], time 7 day): 4.9% | WBC ([…], time 7 day): 113 x10_2/uL | APTT ([…], time 14 day): 16.8 s | Bas ([…], time 14 day): 0.2% | Eos ([…], time 14 day): 1% | Fbg ([…], time 14 day): 295.2 mg/dL | Hb ([…], time 14 day): 14.7 g/dL | Ht ([…], time 14 day): 44.1% | Lym ([…], time 14 day): 78.4% | MCH ([…], time 14 day): 20 pg | MCHC ([…], time 14 day): 33.4% | MCV ([…], time 14 day): 60 fL | Mono ([…], time 14 day): 2.2% | Neu ([…], time 14 day): 17.2% | PT ([…], time 14 day): 13.2 s | Plat ([…], time 14 day): 121.1 x10_4/uL | RBC ([…], time 14 day): 736 x10_4/ul | Ret ([…], time 14 day): 4.1% | WBC ([…], time 14 day): 102.3 x10_2/uL | APTT ([…], time 28 day): 17.4 s | Bas ([…], time 28 day): 0.2% | Eos ([…], time 28 day): 1.2% | Fbg ([…], time 28 day): 265 mg/dL | Hb ([…], time 28 day): 15.8 g/dL | Ht ([…], time 28 day): 45.8% | Lym ([…], time 28 day): 76.4% | MCH ([…], time 28 day): 19.4 pg | MCHC ([…], time 28 day): 34.5% | MCV ([…], time 28 day): 56.1 fL | Mono ([…], time 28 day): 1.8% | Neu ([…], time 28 day): 20% | PT ([…], time 28 day): 13.4 s | Plat ([…], time 28 day): 114.4 x10_4/uL | RBC ([…], time 28 day): 817 x10_4/ul | Ret ([…], time 28 day): 2.1% | WBC ([…], time 28 day): 109.3 x10_2/uL | KIDNEY_L ([…], time 7 day): 1.1 g | KIDNEY_R ([…], time 7 day): 1.1 g | KIDNEY_TOTAL ([…], time 7 day): 2.1 g | KIDNEY_L ([…], time 14 day): 1.3 g | KIDNEY_R ([…], time 14 day): 1.2 g | KIDNEY_TOTAL ([…], time 14 day): 2.5 g | KIDNEY_L ([…], time 28 day): 1.3 g | KIDNEY_R ([…], time 28 day): 1.4 g | KIDNEY_TOTAL ([…], time 28 day): 2.7 g | LIVER ([…], time 7 day): 12.5 g | LIVER ([…], time 14 day): 14.2 g | LIVER ([…], time 28 day): 14 g | A/G ([…], time 7 day): 0.8 | ALP ([…], time 7 day): 1497.6 IU/L | ALT ([…], time 7 day): 46.8 IU/L | AST ([…], time 7 day): 65.8 IU/L | BUN ([…], time 7 day): 17 mg/dL | CRE ([…], time 7 day): 0.2 mg/dL | Ca ([…], time 7 day): 11 mg/dL | Cl ([…], time 7 day): 104.2 meq/L | DBIL ([…], time 7 day): 0.01 mg/dL | GLC ([…], time 7 day): 182.2 mg/dL | IP ([…], time 7 day): 8.1 mg/dL | K ([…], time 7 day): 4.2 meq/L | LDH ([…], time 7 day): 54.4 IU/L | Na ([…], time 7 day): 141.6 meq/L | PL ([…], time 7 day): 143 mg/dL | RALB ([…], time 7 day): 2.6 g/dL | TBIL ([…], time 7 day): 0.052 mg/dL | TC ([…], time 7 day): 70.4 mg/dL | TG ([…], time 7 day): 114.4 mg/dL | TP ([…], time 7 day): 5.8 g/dL | gamma-GTP ([…], time 7 day): 1 IU/L | A/G ([…], time 14 day): 0.9 | ALP ([…], time 14 day): 1350 IU/L | ALT ([…], time 14 day): 37.4 IU/L | AST ([…], time 14 day): 62.8 IU/L | BUN ([…], time 14 day): 16 mg/dL | CRE ([…], time 14 day): 0.2 mg/dL | Ca ([…], time 14 day): 11.1 mg/dL | Cl ([…], time 14 day): 103 meq/L | DBIL ([…], time 14 day): 0.014 mg/dL | GLC ([…], time 14 day): 188.8 mg/dL | IP ([…], time 14 day): 7.8 mg/dL | K ([…], time 14 day): 3.9 meq/L | LDH ([…], time 14 day): 50.6 IU/L | Na ([…], time 14 day): 140.6 meq/L | PL ([…], time 14 day): 145.2 mg/dL | RALB ([…], time 14 day): 2.7 g/dL | TBIL ([…], time 14 day): 0.052 mg/dL | TC ([…], time 14 day): 71.8 mg/dL | TG ([…], time 14 day): 109 mg/dL | TP ([…], time 14 day): 5.8 g/dL | gamma-GTP ([…], time 14 day): 1 IU/L | A/G ([…], time 28 day): 0.8 | ALP ([…], time 28 day): 1073.6 IU/L | ALT ([…], time 28 day): 43.8 IU/L | AST ([…], time 28 day): 65.2 IU/L | BUN ([…], time 28 day): 17 mg/dL | CRE ([…], time 28 day): 0.2 mg/dL | Ca ([…], time 28 day): 10.6 mg/dL | Cl ([…], time 28 day): 105.2 meq/L | DBIL ([…], time 28 day): 0.006 mg/dL | GLC ([…], time 28 day): 184.4 mg/dL | IP ([…], time 28 day): 6.5 mg/dL | K ([…], time 28 day): 3.8 meq/L | LDH ([…], time 28 day): 56.2 IU/L | Na ([…], time 28 day): 142 meq/L | PL ([…], time 28 day): 125.4 mg/dL | RALB ([…], time 28 day): 2.7 g/dL | TBIL ([…], time 28 day): 0.062 mg/dL | TC ([…], time 28 day): 63.2 mg/dL | TG ([…], time 28 day): 84.4 mg/dL | TP ([…], time 28 day): 6.1 g/dL | gamma-GTP ([…], time 28 day): 1 IU/L
